The values below come from US20240360178A1, “MACROCYCLIC IMMUNOMODULATORS” (Bristol-Myers Squibb Company, priority 2021, published 2024).

Positions of bridges follow the written chain, without caps; N, C: chain ends. Non-standard residues stand in square brackets, D forms with d. Residues, ends and D or L forms follow the SMILES beside them. *: point of attachment. Tyr(3,5-Br2) = N[C@@H](Cc1cc(Br)c(O)c(Br)c1)C(=O)O; Phe(4-COOH) = N[C@@H](Cc1ccc(C(=O)O)cc1)C(=O)O; Bip = N[C@@H](Cc1ccc(-c2ccccc2)cc1)C(=O)O; Phe(3-CN) = N#Cc1cccc(C[C@H](N)C(=O)O)c1; Phe(3-OMe) = COc1cccc(C[C@H](N)C(=O)O)c1; Phe(3-Me) = Cc1cccc(C[C@H](N)C(=O)O)c1; Val(3-OH) = CC(C)(O)[C@H](N)C(=O)O; NMeR = CN[C@@H](CCCNC(=N)N)C(=O)O; NMeF = CN[C@@H](Cc1ccccc1)C(=O)O; hArg = N=C(N)NCCCC[C@H](N)C(=O)O; 3Pal = N[C@@H](Cc1cccnc1)C(=O)O; 4Pal = N[C@@H](Cc1ccncc1)C(=O)O; Cha = N[C@@H](CC1CCCCC1)C(=O)O; hSer = N[C@@H](CCO)C(=O)O; Carboxymethyl = O=C(O)C*; NMeA = CN[C@@H](C)C(=O)O; Orn = NCCC[C@H](N)C(=O)O; Dab = NCC[C@H](N)C(=O)O; Abu = CC[C@H](N)C(=O)O; Sar = CNCC(=O)O

The assay concerns the target T1, human PD-1 (Jurkat-PD-1 cells) / PE-labeled human PD-L1-Ig (Homo sapiens, UniProt Q15116).
T1 construct: expressed in transfected cells; host or cells: Jurkat cell line over-expressing human PD-1
The assay is described as follows: Jurkat-PD-1 Cell Binding High-Content Screening Assay (CBA); Jurkat hPD1-PDL1 assay. As to conditions: Jurkat cell line over-expressing human PD-1; PE-labeled PD-L1-Ig 20 nM final; compound incubated 2 hours at 37° C.; read-out: Jurkat HPD1-PDL1 IC50. The method in brief: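 Read-out is high-content imaging of PE fluorescence on PD-1-over-expressing Jurkat cells. Cells are first exposed to compound for 2 hours at 37° C in serum-containing DMEM, after which PE-labeled PD-L1-Ig is added at 20 nM final.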

T1 sequence (Q15116 25-288): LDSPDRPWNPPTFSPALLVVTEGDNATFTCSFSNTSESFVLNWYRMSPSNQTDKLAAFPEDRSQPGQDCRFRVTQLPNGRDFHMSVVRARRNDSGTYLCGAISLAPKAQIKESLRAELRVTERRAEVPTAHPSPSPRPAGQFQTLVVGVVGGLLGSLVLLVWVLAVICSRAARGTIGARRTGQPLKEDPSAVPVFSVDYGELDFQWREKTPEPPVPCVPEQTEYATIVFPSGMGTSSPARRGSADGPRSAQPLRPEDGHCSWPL

In the case of `CC(C)C[C@@H]1NC(=O)CSC[C@@H](C(=O)NCC(N)=O)NC(=O)[C@H]([C@@H](C)O)NC(=O)[C@H](C(C)C)NC(=O)[C@H](CC(C)C)NC(=O)[C@H](CCCNC(=N)N)NC(=O)[C@H](Cc2ccccc2)N(C)C(=O)[C@H](C)N(C)C(=O)[C@H](CCCNC(=N)N)NC(=O)[C@H](Cc2ccc(-c3ccccc3)cc2)NC(=O)[C@H](C(C)C)NC(=O)[C@H](Cc2c[nH]c3ccccc23)NC(=O)[C@H](CC(=O)O)NC(=O)[C@H](Cc2ccc(O)cc2)NC1=O` [Example 1312] ({CH2CO}-LYDWV[Bip]R[NMeA][NMeF]RLVTCG-NH2; thioether N-14), the IC50 (in general, the concentration needed to halve the response being measured) stood at 760 nM.
With `CC(C)C[C@@H]1NC(=O)[C@H](Cc2c[nH]c3ccccc23)NC(=O)[C@H](CC(=O)O)NC(=O)[C@H](Cc2ccc(O)cc2)NC(=O)[C@H](Cc2ccccc2)NC(=O)CSC[C@@H](C(=O)N[C@@H](C)C(N)=O)NC(=O)[C@H]([C@@H](C)O)NC(=O)[C@H](C(C)C)NC(=O)[C@H](CC(C)C)NC(=O)[C@H](CC(N)=O)NC(=O)[C@H]2CCCN2C(=O)[C@H](CCCN)NC(=O)[C@H](C(C)C)NC(=O)[C@H](Cc2ccc(-c3ccccc3)cc2)NC1=O` [Example 1418] ({CH2CO}-FYDWL[Bip]V[Orn][dP]NLVTCA-NH2; thioether N-14), the IC50 was 210 nM.
On to `CC(C)C[C@@H]1NC(=O)[C@H](CCCNC(=N)N)NC(=O)[C@H](Cc2ccccc2)N(C)C(=O)[C@H](C)N(C)C(=O)[C@H](CCCCNC(=N)N)NC(=O)[C@H](Cc2ccc(-c3ccccc3)cc2)NC(=O)[C@H](C(C)C)NC(=O)[C@H](Cc2c[nH]c3ccccc23)NC(=O)[C@H](CC(=O)O)NC(=O)[C@H](Cc2ccc(O)cc2)NC(=O)[C@H](Cc2ccccc2)NC(=O)CSC[C@@H](C(=O)NCC(N)=O)NC(=O)[C@H](CO)NC(=O)[C@H](C(C)C)NC1=O` [Example 1244] ({CH2CO}-FYDWV[Bip][hArg][NMeA][NMeF]RLVSCG-NH2; thioether N-14), for which the IC50 came to 190 nM.
Under `COc1cccc(C[C@@H]2NC(=O)[C@H](CC(=O)O)NC(=O)[C@H](Cc3ccc(C(=O)O)cc3)NC(=O)[C@H](Cc3ccncc3)NC(=O)CSC[C@@H](C(=O)N[C@@H](C)C(N)=O)NC(=O)[C@H](CO)NC(=O)[C@H](C(C)C)NC(=O)[C@H](CC(C)C)NC(=O)[C@H](CC(N)=O)NC(=O)[C@H]3CCCN3C(=O)[C@H](C)N(C)C(=O)[C@H](C(C)C)NC(=O)[C@H](Cc3ccc(-c4ccccc4)cc3)NC(=O)[C@H](CC(C)C)NC2=O)c1` [Example 1387] ({CH2CO}-[4Pal][Phe(4-COOH)]D[Phe(3-OMe)]L[Bip]V[NMeA][dP]NLVSCA-NH2; thioether N-14) stands 10 nM; under `CC(C)C[C@@H]1NC(=O)[C@H](CCCN)NC(=O)[C@H](Cc2ccccc2)N(C)C(=O)[C@H](C)N(C)C(=O)[C@H](CCCNC(=N)N)NC(=O)[C@H](Cc2ccc(-c3ccccc3)cc2)NC(=O)[C@H](C(C)C)NC(=O)[C@H](Cc2c[nH]c3ccccc23)NC(=O)[C@H](CC(=O)O)NC(=O)[C@H](Cc2ccc(O)cc2)NC(=O)[C@H](Cc2ccccc2)NC(=O)CSC[C@@H](C(=O)N[C@@H](CO)C(N)=O)NC(=O)[C@H]([C@@H](C)O)NC(=O)[C@H](C(C)C)NC1=O` [Example 1357] ({CH2CO}-FYDWV[Bip]R[NMeA][NMeF][Orn]LVTCS-NH2; thioether N-14), 210 nM.
As for `CC(C)C[C@@H]1NC(=O)[C@H](CCN)NC(=O)[C@H](Cc2ccccc2)N(C)C(=O)[C@H](C)N(C)C(=O)[C@H](CCCNC(=N)N)NC(=O)[C@H](Cc2ccc(-c3ccccc3)cc2)NC(=O)[C@H](C(C)C)NC(=O)[C@H](Cc2c[nH]c3ccccc23)NC(=O)[C@H](CC(=O)O)NC(=O)[C@H](Cc2ccc(O)cc2)NC(=O)[C@H](CC(N)=O)NC(=O)CSC[C@@H](C(=O)N[C@@H](C)C(N)=O)NC(=O)[C@H]([C@@H](C)O)NC(=O)[C@H](C(C)C)NC1=O` [Example 1320] ({CH2CO}-NYDWV[Bip]R[NMeA][NMeF][Dab]LVTCA-NH2; thioether N-14), the figure is 150 nM; as for `COc1cccc(C[C@@H]2NC(=O)[C@H](CC(=O)O)NC(=O)[C@H](Cc3cccc(C#N)c3)NC(=O)[C@H](Cc3ccncc3)NC(=O)CSC[C@@H](C(=O)N[C@@H](C)C(N)=O)NC(=O)[C@H](CO)NC(=O)[C@H](C(C)C)NC(=O)[C@H](CC(C)C)NC(=O)[C@H](CC(N)=O)NC(=O)CN(C)C(=O)[C@H](C)N(C)C(=O)[C@H](C(C)C)NC(=O)[C@H](Cc3ccc(-c4ccccc4)cc3)NC(=O)[C@H](CC(C)C)NC2=O)c1` [Example 1392] ({CH2CO}-[4Pal][Phe(3-CN)]D[Phe(3-OMe)]L[Bip]V[NMeA][Sar]NLVSCA-NH2; thioether N-14), 50 nM; as for `CC[C@@H]1NC(=O)[C@H](Cc2ccc(-c3ccccc3)cc2)NC(=O)[C@H](CC(C)C)NC(=O)[C@H](Cc2c[nH]c3ccccc23)NC(=O)[C@H](CC(=O)O)NC(=O)[C@H](Cc2ccc(O)cc2)NC(=O)[C@H](Cc2ccccc2)NC(=O)CSC[C@@H](C(=O)NCC(N)=O)NC(=O)[C@H](CO)NC(=O)[C@H](C(C)C)NC(=O)[C@H](CC(C)C)NC(=O)[C@H](CCCNC(=N)N)NC(=O)CN(C)C(=O)[C@H](CCCNC(=N)N)N(C)C1=O` [Example 1234] ({CH2CO}-FYDWL[Bip][Abu][NMeR][Sar]RLVSCG-NH2; thioether N-14), 290 nM.
Under `CC(C)C[C@@H]1NC(=O)[C@H](Cc2c[nH]c3ccccc23)NC(=O)[C@H](CC(=O)O)NC(=O)[C@H](Cc2cc(Br)c(O)c(Br)c2)NC(=O)[C@H](Cc2ccccc2)NC(=O)CSC[C@@H](C(=O)N[C@@H](C)C(N)=O)NC(=O)[C@H](CO)NC(=O)[C@H](C(C)C)NC(=O)[C@H](CC(C)C)NC(=O)[C@H](CC(N)=O)NC(=O)CN(C)C(=O)[C@H](C)N(C)C(=O)[C@H](C(C)C)NC(=O)[C@H](Cc2ccc(-c3ccccc3)cc2)NC1=O` [Example 1113] ({CH2CO}-F[Tyr(3,5-Br2)]DWL[Bip]V[NMeA][Sar]NLVSCA-NH2; thioether N-14) stands 370 nM; under `CC(C)C[C@@H]1NC(=O)[C@H](Cc2c[nH]c3ccccc23)NC(=O)[C@H](CC(=O)O)NC(=O)[C@H](Cc2ccc(O)cc2)NC(=O)[C@H](Cc2ccccc2)NC(=O)CSC[C@@H](C(=O)N[C@@H](C)C(N)=O)NC(=O)[C@H](CCO)NC(=O)[C@H](C(C)C)NC(=O)[C@H](CC(C)C)NC(=O)[C@H](CC(N)=O)NC(=O)CN(C)C(=O)[C@H](C)N(C)C(=O)[C@H](C(C)C)NC(=O)[C@H](Cc2ccc(-c3ccccc3)cc2)NC1=O` [Example 1159] ({CH2CO}-FYDWL[Bip]V[NMeA][Sar]NLV[hSer]CA-NH2; thioether N-14), 860 nM; under `CC(C)C[C@@H]1NC(=O)[C@H](Cc2c[nH]c3ccccc23)NC(=O)[C@H](CC(=O)O)NC(=O)[C@H](Cc2ccc(C(=O)O)cc2)NC(=O)[C@H](CC(N)=O)NC(=O)CSC[C@@H](C(=O)N[C@@H](C)C(N)=O)NC(=O)[C@H](CO)NC(=O)[C@H](C(C)C)NC(=O)[C@H](CC(C)C)NC(=O)[C@H](CC(N)=O)NC(=O)[C@H]2CCCN2C(=O)[C@H](C)N(C)C(=O)[C@H](C(C)C)NC(=O)[C@H](Cc2ccc(-c3ccccc3)cc2)NC1=O` [Example 1059] ({CH2CO}-N[Phe(4-COOH)]DWL[Bip]V[NMeA][dP]NLVSCA-NH2; thioether N-14), 140 nM.
As for `CC(C)C[C@@H]1NC(=O)[C@H](Cc2c[nH]c3ccccc23)NC(=O)[C@H](CC(=O)O)NC(=O)[C@H](Cc2ccc(O)cc2)NC(=O)[C@H](Cc2ccccc2)NC(=O)CSC[C@@H](C(=O)NCC(N)=O)NC(=O)[C@H]([C@@H](C)O)NC(=O)[C@H](C(C)C)NC(=O)[C@H](CC(C)C)NC(=O)[C@H](CCN)NC(=O)[C@H]2CCCN2C(=O)[C@H](C)N(C)C(=O)[C@H](C(C)C)NC(=O)[C@H](Cc2ccc(-c3ccccc3)cc2)NC1=O` [Example 1396] ({CH2CO}-FYDWL[Bip]V[NMeA][dP][Dab]LVTCG-NH2; thioether N-14), the IC50 is 70 nM.
Consider `CC(C)C[C@@H]1NC(=O)[C@H](C)NC(=O)[C@H]2CCCN2C(=O)[C@H](C)N(C)C(=O)[C@H](CCC(=O)O)NC(=O)[C@H](Cc2ccc(-c3ccccc3)cc2)NC(=O)[C@H](CC(C)C)NC(=O)[C@H](Cc2c[nH]c3ccccc23)NC(=O)[C@H](CC(=O)O)NC(=O)[C@H](Cc2ccc(C(=O)O)cc2)NC(=O)[C@H](Cc2cccnc2)NC(=O)CSC[C@@H](C(=O)N[C@@H](C)C(N)=O)NC(=O)[C@H](CO)NC(=O)[C@H](C(C)C)NC1=O` [Example 1085] ({CH2CO}-[3Pal][Phe(4-COOH)]DWL[Bip]E[NMeA][dP]ALVSCA-NH2; thioether N-14), for which the IC50 was 240 nM.
Take `Cc1cccc(C[C@@H]2NC(=O)[C@H](CC(=O)O)NC(=O)[C@H](Cc3cccc(C#N)c3)NC(=O)[C@H](Cc3ccncc3)NC(=O)CSC[C@@H](C(=O)N[C@@H](CCN)C(N)=O)NC(=O)[C@H](CO)NC(=O)[C@H](C(C)(C)O)NC(=O)[C@H](CC3CCCCC3)NC(=O)[C@H](CCN)NC(=O)[C@H]3CCCN3C(=O)[C@H](C)N(C)C(=O)[C@H](Cc3ccc(OCC(=O)O)cc3)NC(=O)[C@H](Cc3ccc(-c4ccccc4)cc3)NC(=O)[C@H](Cc3ccc(OCC(=O)O)cc3)NC2=O)c1` [Example 1182] ({CH2CO}-[4Pal][Phe(3-CN)]D[Phe(3-Me)]Y(Carboxymethyl)[Bip]Y(Carboxymethyl)[NMeA][dP][Dab][Cha][Val(3-OH)]SC[Dab]-NH2; thioether N-14): the IC50 turned out to be 240 nM.
Turning to `CC(C)C[C@@H]1NC(=O)[C@H](CCCN)NC(=O)[C@H](Cc2ccccc2)N(C)C(=O)[C@H](C)N(C)C(=O)[C@H](CCCNC(=N)N)NC(=O)[C@H](Cc2ccc(-c3ccccc3)cc2)NC(=O)[C@H](C(C)C)NC(=O)[C@H](Cc2c[nH]c3ccccc23)NC(=O)[C@H](CC(=O)O)NC(=O)[C@H](Cc2ccc(O)cc2)NC(=O)[C@H](CC(N)=O)NC(=O)CSC[C@@H](C(=O)N[C@@H](CCC(=O)O)C(N)=O)NC(=O)[C@H]([C@@H](C)O)NC(=O)[C@H](C(C)C)NC1=O` [Example 1352] ({CH2CO}-NYDWV[Bip]R[NMeA][NMeF][Orn]LVTCE-NH2; thioether N-14), the 50% inhibitory concentration (IC50) came out at 420 nM.
